Measured values reported in US7375083B2, “Pharmaceutical compositions for prevention of overdose or abuse” (Shire LLC, priority 2003, dated 2008).

What was measured:
Male Sprague-Dawley rats [1] = assay: Horizontal locomotor activity after oral administration; assay type: in vivo; settings: oral gavage, 6 mg/kg amphetamine equivalent
Male Sprague-Dawley rats [2] = assay: Locomotor activity after intravenous administration; assay type: in vivo
[3] = Oral pharmacokinetics in rats, plasma d-amphetamine by ELISA; settings: rat; oral; 60 mg/kg
Anesthetized Dog = assay: Cardiovascular effects after intravenous bolus injection in anesthetized dogs
Male Sprague-Dawley rats [4] = assay: Locomotor activity after intranasal administration with and without CMC; assay type: in vivo
[5] = 1.0 mg/kg amphetamine equivalent, 3 h
[6] = 1.0 mg/kg, activity above baseline relative to d-amphetamine
[7] = 1.0 mg/kg amphetamine equivalent, 1 h

C[C@H](N)Cc1ccccc1 [d-amphetamine, reference compound]
Peak of activity (Counts per 0.2 h) (Male Sprague-Dawley rats [1]; 5 Hours): 291 Counts per 0.2 h | Time of Last Count Above 200 per 0.2 h (Male Sprague-Dawley rats [1]; 5 Hours): 2.6 h | Total Activity Counts (Male Sprague-Dawley rats [1]; 5 Hours): 515 Counts | Total Activity Counts Above Baseline (Male Sprague-Dawley rats [1]; 5 Hours): 0 Counts | Peak of activity (Counts per 0.2 h) (Male Sprague-Dawley rats [1]; 12 Hours): 223 Counts per 0.2 h | Time of Last Count Above 100 per 0.2 h (Male Sprague-Dawley rats [1]; 12 Hours): 6.4 h | Total Activity Counts (Male Sprague-Dawley rats [1]; 12 Hours): 6622 Counts | Total Activity Counts Above Baseline (Male Sprague-Dawley rats [1]; 12 Hours): 5686 Counts | Total Activity Counts 3 h (Male Sprague-Dawley rats [2]; [5]): 1659 Counts | Total Activity Counts Above Baseline (Male Sprague-Dawley rats [2]; [5]): 1355 Counts | Percent d-amphetamine (Male Sprague-Dawley rats [2]; [6]): 100% | Animals that died or were sacrificed due to acute symptoms of toxicity [3]: 8 of 12 | DAP % Change from respective Time 0 (Anesthetized Dog; 0.202 mg/kg, TIME 0): 0% | LVP % Change from respective Time 0 (Anesthetized Dog; 0.202 mg/kg, TIME 0): 0% | MAP % Change from respective Time 0 (Anesthetized Dog; 0.202 mg/kg, TIME 0): 0% | MAP - mean arterial pressure (Anesthetized Dog; 0.202 mg/kg, TIME 0): 84 mmHg | SAP % Change from respective Time 0 (Anesthetized Dog; 0.202 mg/kg, TIME 0): 0% | SAP - systolic arterial pressure (Anesthetized Dog; 0.202 mg/kg, TIME 0): 111 mmHg | DAP % Change from respective Time 0 (Anesthetized Dog; 0.202 mg/kg, TIME 5): 117% | LVP % Change from respective Time 0 (Anesthetized Dog; 0.202 mg/kg, TIME 5): 107% | MAP % Change from respective Time 0 (Anesthetized Dog; 0.202 mg/kg, TIME 5): 109% | MAP - mean arterial pressure (Anesthetized Dog; 0.202 mg/kg, TIME 5): 176 mmHg | SAP % Change from respective Time 0 (Anesthetized Dog; 0.202 mg/kg, TIME 5): 97% | SAP - systolic arterial pressure (Anesthetized Dog; 0.202 mg/kg, TIME 5): 218 mmHg | DAP % Change from respective Time 0 (Anesthetized Dog; 0.202 mg/kg, TIME 15): 45% | LVP % Change from respective Time 0 (Anesthetized Dog; 0.202 mg/kg, TIME 15): 52% | MAP % Change from respective Time 0 (Anesthetized Dog; 0.202 mg/kg, TIME 15): 49% | MAP - mean arterial pressure (Anesthetized Dog; 0.202 mg/kg, TIME 15): 125 mmHg | SAP % Change from respective Time 0 (Anesthetized Dog; 0.202 mg/kg, TIME 15): 52% | SAP - systolic arterial pressure (Anesthetized Dog; 0.202 mg/kg, TIME 15): 168 mmHg | DAP % Change from respective Time 0 (Anesthetized Dog; 0.202 mg/kg, TIME 25): 30% | LVP % Change from respective Time 0 (Anesthetized Dog; 0.202 mg/kg, TIME 25): 37% | MAP % Change from respective Time 0 (Anesthetized Dog; 0.202 mg/kg, TIME 25): 31% | MAP - mean arterial pressure (Anesthetized Dog; 0.202 mg/kg, TIME 25): 110 mmHg | SAP % Change from respective Time 0 (Anesthetized Dog; 0.202 mg/kg, TIME 25): 34% | SAP - systolic arterial pressure (Anesthetized Dog; 0.202 mg/kg, TIME 25): 148 mmHg | DAP % Change from respective Time 0 (Anesthetized Dog; 0.202 mg/kg, TIME 30): 20% | LVP % Change from respective Time 0 (Anesthetized Dog; 0.202 mg/kg, TIME 30): 30% | MAP % Change from respective Time 0 (Anesthetized Dog; 0.202 mg/kg, TIME 30): 23% | MAP - mean arterial pressure (Anesthetized Dog; 0.202 mg/kg, TIME 30): 103 mmHg | SAP % Change from respective Time 0 (Anesthetized Dog; 0.202 mg/kg, TIME 30): 26% | SAP - systolic arterial pressure (Anesthetized Dog; 0.202 mg/kg, TIME 30): 140 mmHg | DAP % Change from respective Time 0 (Anesthetized Dog; 0.404 mg/kg, TIME 0): 0% | LVP % Change from respective Time 0 (Anesthetized Dog; 0.404 mg/kg, TIME 0): 0% | MAP % Change from respective Time 0 (Anesthetized Dog; 0.404 mg/kg, TIME 0): 0% | MAP - mean arterial pressure (Anesthetized Dog; 0.404 mg/kg, TIME 0): 101 mmHg | SAP % Change from respective Time 0 (Anesthetized Dog; 0.404 mg/kg, TIME 0): 0% | SAP - systolic arterial pressure (Anesthetized Dog; 0.404 mg/kg, TIME 0): 139 mmHg | DAP % Change from respective Time 0 (Anesthetized Dog; 0.404 mg/kg, TIME 5): 88% | LVP % Change from respective Time 0 (Anesthetized Dog; 0.404 mg/kg, TIME 5): 79% | MAP % Change from respective Time 0 (Anesthetized Dog; 0.404 mg/kg, TIME 5): 85% | MAP - mean arterial pressure (Anesthetized Dog; 0.404 mg/kg, TIME 5): 187 mmHg | SAP % Change from respective Time 0 (Anesthetized Dog; 0.404 mg/kg, TIME 5): 73% | SAP - systolic arterial pressure (Anesthetized Dog; 0.404 mg/kg, TIME 5): 240 mmHg | DAP % Change from respective Time 0 (Anesthetized Dog; 0.404 mg/kg, TIME 15): 44% | LVP % Change from respective Time 0 (Anesthetized Dog; 0.404 mg/kg, TIME 15): 43% | MAP % Change from respective Time 0 (Anesthetized Dog; 0.404 mg/kg, TIME 15): 43% | MAP - mean arterial pressure (Anesthetized Dog; 0.404 mg/kg, TIME 15): 145 mmHg | SAP % Change from respective Time 0 (Anesthetized Dog; 0.404 mg/kg, TIME 15): 39% | SAP - systolic arterial pressure (Anesthetized Dog; 0.404 mg/kg, TIME 15): 193 mmHg | DAP % Change from respective Time 0 (Anesthetized Dog; 0.404 mg/kg, TIME 25): 17% | LVP % Change from respective Time 0 (Anesthetized Dog; 0.404 mg/kg, TIME 25): 26% | MAP % Change from respective Time 0 (Anesthetized Dog; 0.404 mg/kg, TIME 25): 20% | MAP - mean arterial pressure (Anesthetized Dog; 0.404 mg/kg, TIME 25): 122 mmHg | SAP % Change from respective Time 0 (Anesthetized Dog; 0.404 mg/kg, TIME 25): 19% | SAP - systolic arterial pressure (Anesthetized Dog; 0.404 mg/kg, TIME 25): 166 mmHg | DAP % Change from respective Time 0 (Anesthetized Dog; 0.404 mg/kg, TIME 30): 11% | LVP % Change from respective Time 0 (Anesthetized Dog; 0.404 mg/kg, TIME 30): 22% | MAP % Change from respective Time 0 (Anesthetized Dog; 0.404 mg/kg, TIME 30): 16% | MAP - mean arterial pressure (Anesthetized Dog; 0.404 mg/kg, TIME 30): 117 mmHg | SAP % Change from respective Time 0 (Anesthetized Dog; 0.404 mg/kg, TIME 30): 16% | SAP - systolic arterial pressure (Anesthetized Dog; 0.404 mg/kg, TIME 30): 160 mmHg | DAP % Change from respective Time 0 (Anesthetized Dog; 2.02 mg/kg, TIME 0): 0% | LVP % Change from respective Time 0 (Anesthetized Dog; 2.02 mg/kg, TIME 0): 0% | MAP % Change from respective Time 0 (Anesthetized Dog; 2.02 mg/kg, TIME 0): 0% | MAP - mean arterial pressure (Anesthetized Dog; 2.02 mg/kg, TIME 0): 115 mmHg | SAP % Change from respective Time 0 (Anesthetized Dog; 2.02 mg/kg, TIME 0): 0% | SAP - systolic arterial pressure (Anesthetized Dog; 2.02 mg/kg, TIME 0): 158 mmHg | DAP % Change from respective Time 0 (Anesthetized Dog; 2.02 mg/kg, TIME 5): 48% | LVP % Change from respective Time 0 (Anesthetized Dog; 2.02 mg/kg, TIME 5): 40% | MAP % Change from respective Time 0 (Anesthetized Dog; 2.02 mg/kg, TIME 5): 47% | MAP - mean arterial pressure (Anesthetized Dog; 2.02 mg/kg, TIME 5): 169 mmHg | SAP % Change from respective Time 0 (Anesthetized Dog; 2.02 mg/kg, TIME 5): 44% | SAP - systolic arterial pressure (Anesthetized Dog; 2.02 mg/kg, TIME 5): 228 mmHg | DAP % Change from respective Time 0 (Anesthetized Dog; 2.02 mg/kg, TIME 15): 23% | LVP % Change from respective Time 0 (Anesthetized Dog; 2.02 mg/kg, TIME 15): 24% | MAP % Change from respective Time 0 (Anesthetized Dog; 2.02 mg/kg, TIME 15): 23% | MAP - mean arterial pressure (Anesthetized Dog; 2.02 mg/kg, TIME 15): 142 mmHg | SAP % Change from respective Time 0 (Anesthetized Dog; 2.02 mg/kg, TIME 15): 24% | SAP - systolic arterial pressure (Anesthetized Dog; 2.02 mg/kg, TIME 15): 196 mmHg | DAP % Change from respective Time 0 (Anesthetized Dog; 2.02 mg/kg, TIME 25): 17% | LVP % Change from respective Time 0 (Anesthetized Dog; 2.02 mg/kg, TIME 25): 19% | MAP % Change from respective Time 0 (Anesthetized Dog; 2.02 mg/kg, TIME 25): 17% | MAP - mean arterial pressure (Anesthetized Dog; 2.02 mg/kg, TIME 25): 135 mmHg | SAP % Change from respective Time 0 (Anesthetized Dog; 2.02 mg/kg, TIME 25): 20% | SAP - systolic arterial pressure (Anesthetized Dog; 2.02 mg/kg, TIME 25): 189 mmHg | DAP % Change from respective Time 0 (Anesthetized Dog; 2.02 mg/kg, TIME 30): 13% | LVP % Change from respective Time 0 (Anesthetized Dog; 2.02 mg/kg, TIME 30): 16% | MAP % Change from respective Time 0 (Anesthetized Dog; 2.02 mg/kg, TIME 30): 12% | MAP - mean arterial pressure (Anesthetized Dog; 2.02 mg/kg, TIME 30): 129 mmHg | SAP % Change from respective Time 0 (Anesthetized Dog; 2.02 mg/kg, TIME 30): 16% | SAP - systolic arterial pressure (Anesthetized Dog; 2.02 mg/kg, TIME 30): 183 mmHg | Effect on mean blood pressure after the first (lowest) dose (Anesthetized Dog; dog, IV bolus, 0.202 mg/kg d-amphetamine, equimolar to 0.5 mg/kg L-lysine-d-amphetamine): acute doubling of the mean BP | Total Activity Counts (1 h) (Male Sprague-Dawley rats [4]; [7]): 858 Counts | Total Activity Counts Above Baseline (Male Sprague-Dawley rats [4]; [7]): 686 Counts | Percent d-amphetamine (Male Sprague-Dawley rats [4]; [6]): 100%
